Here are results for 1 compound from PMC6344531, “Discovery and evaluation of inhibitor of LARP6 as specific antifibrotic compound” (Scientific Reports, 2019).

The target in this test is T1, LARP6 (Homo sapiens, UniProt Q9BRS8).
T1 construct: LARP6*, amino-acids 72–303, His-tag
T1 sequence (Q9BRS8 72-303): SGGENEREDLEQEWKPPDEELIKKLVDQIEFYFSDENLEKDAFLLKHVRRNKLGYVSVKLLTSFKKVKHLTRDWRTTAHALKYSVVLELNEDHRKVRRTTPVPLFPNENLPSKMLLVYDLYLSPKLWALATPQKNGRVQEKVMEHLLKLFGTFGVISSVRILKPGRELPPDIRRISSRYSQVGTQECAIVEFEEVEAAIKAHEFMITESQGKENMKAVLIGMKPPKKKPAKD
Briefly: FP dissociation of LARP6* from fluorescein-labelled […]'SL RNA; intrinsic tryptophan fluorescence quenching of LARP6*; gel mobility shift with extracts of treated cells. Format: binding.

Turning to `Cc1cccn2c(=O)c3cc(C(=O)Nc4cccnc4)n(C)c3nc12` [C9], the IC50 was about 15 µM.
